The record followed here is patent publication US9975852B2, “Quinoline sulfonyl derivatives and uses thereof” (Health Sciences North Research Institute, priority 2013, dated 2018).

Data set [1] concerns the target T1, Trypsin-like proteasome activity in HeLa S3 cell lysates (Homo sapiens, UniProt Q99436).
T1 construct: proteasomes were extracted in 0.5% NP40 buffer; endogenous in cells; host or cells: HeLa S3
The data set can be described thus: Proteasome activity assay, trypsin-like. Format: biochemical. To be noted: read-out: Inhibition (IC50) Trypsin-like. As to the method: Exponentially growing HeLa S3 cells were plated on 96-well plates. After overnight incubation, the cells were treated with different concentrations of drugs for 6 hours or left untreated (control). At the end of 6 hours, proteasomes were extracted in 0.5% NP40 buffer, and equal amounts of samples were incubated with 25 μM of fluorogenic substrates purchased from Boston Biochem (Cambridge Mass.). (LRR-specific for trypsin-like activity, LLE-specific for caspase-like activity and SUVY-specific for chymotrypsin like activity) in black-bottom 96-well plates at 37° C. Fluorescence was monitored every 5 min at the wavelength of 360 nm (excitation) and 480 nm (emission). Chymotrypsin activity was also determined by a kit-based method (similar to described above) purchased from Caymen Biochem (Ann Arbor, Mich.), using a fluorogenic substrate specific for chymotrypsin activity.
Analysis of proteasome activity in HeLa S3 cell lysates treated with various compounds (FIG. 10). VR-23 inhibits proteasome activity. 20S proteasome activity was inhibited by 1 μM VR-23. MG132 and EGCG, known proteasome inhibitors, were used as positive controls. The PC positive control is cell lysates prepared from Jurkat cells with a high proteasome activity. “Asynchr” denote asynchronous HeLa S3 cells grown in the absence of VR-23.

The subject of the next data set is MCF10A non-cancer cells. The data set can be described thus: Confocal microscopy of centrosomes, MCF10A non-cancer cells. Type of data set: cell-based, human. To be noted: VR-23 20 μM, 3 hours post-DT. The source says:
All immunocytochemistry experiments were visualized by confocal microscopy using a Zeiss 510 Meta laser scanning microscope (Carl Zeiss) equipped with a 63× objective lens, unless otherwise specified herein. Three lasers were utilized for excitation with the following band pass filter settings used for detection: Argon 488 nm (band pass 505-530), HeNe 543 nm (long pass 560) and 633 nm (long pass 650). All images were captured and analyzed using LSM 510 software included with the microscope (LSM Image Examiner™, Carl Zeiss).
The synchronization at the G1/S border (more accurately at the beginning of S phase) was achieved by double thymidine block (DT). Briefly, exponentially growing cells are treated with 2.0 mM thymidine for 18 hours, followed by incubation for 11 hours in drug-free complete medium, by which time most cells are at mid-late G1 phase. The cells are then incubated for another 14 hours in 2.0 mM thymidine to arrest them at the G1/S border. To arrest cells at the G2/M phase, cells were maintained for 18 hours in complete medium containing nocodazole (50 ng/ml). Both these synchronization are reversible.
MCF10A (non-cancer breast) cells synchronized at G1/S by DT were released into complete medium for 3 hours in the absence (control) or presence of VR-23 (20 μM), followed by immunostaining with an antibody specific for cyclin E (FIG. 19A) or Plk1 or Plk4 (FIG. 19B). […]

Data set [2] is described as follows: Body weight of ATH490 mice. To be noted: VR-23 30 mg/kg. Format: in vivo. From the text:
D0-D25/D29 denotes day 0 to days 25/29 post-drug treatment. […] The body weights of ATH490 mice are normalized on the basis that those of day 0 are 100%.

The test system of another data set is MDA-MB468. In words: SRB antiproliferative assay, MDA-MB468. Type of data set: cell-based, human. The note with it: Homo sapiens. The method, boiled down:
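Cells (5,000-10,000 per well) exposed to seven drug concentrations for 48 h, then TCA-fixed and stained with 0.4% SRB. Growth computed as (Ti−Tz)/(C−Tz)×100 against time-zero and untreated controls. GI50 taken from variable-slope sigmoidal fit.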
Background: The SRB assay estimates cell density from bound dye.

Usually IC50 stands for the concentration that inhibits the measured activity by half. The term GI50 denotes the concentration at which growth is held to half of that of the control. For `O=[N+]([O-])c1ccc(S(=O)(=O)N2CCN(c3ccnc4cc(Cl)ccc34)CC2)c([N+](=O)[O-])c1` [Compound 1, 7-Chloro-4-(4-(2,4-dinitrophenylsulfonyl)piperazin-1-yl)quinoline], the concentration for half-maximal inhibition (IC50) worked out at 1 nM in data set [1] and 700 ± 100 nM in the data set with MDA-MB468 (MDA-MB-468). Further, in the data set on MCF10A non-cancer cells, the “Centrosome amplification in MCF10A” value was “did not cause centrosome amplification”. Besides, in data set [2], the “Toxic effect by body weight” value is “did not show any notable toxic effect”. This compound returned a 50% growth inhibitory concentration (GI50) with MDA-MB468 (MDA-MB-468, 48 h) of 700 ± 100 nM.
